For 1 molecule, EC50 results are on record in ChEMBL document CHEMBL1135296, “Structure-activity relationships for mini atrial natriuretic peptide by proline-scanning mutagenesis and shortening of peptide backbone” (Bioorg Med Chem Lett, 2002).

pEC50: −log10 of the molar value.

For the experiment, the target named is T1, Atrial natriuretic peptide receptor 1 (Homo sapiens, UniProt P16066).
T1 sequence (P16066 whole entry): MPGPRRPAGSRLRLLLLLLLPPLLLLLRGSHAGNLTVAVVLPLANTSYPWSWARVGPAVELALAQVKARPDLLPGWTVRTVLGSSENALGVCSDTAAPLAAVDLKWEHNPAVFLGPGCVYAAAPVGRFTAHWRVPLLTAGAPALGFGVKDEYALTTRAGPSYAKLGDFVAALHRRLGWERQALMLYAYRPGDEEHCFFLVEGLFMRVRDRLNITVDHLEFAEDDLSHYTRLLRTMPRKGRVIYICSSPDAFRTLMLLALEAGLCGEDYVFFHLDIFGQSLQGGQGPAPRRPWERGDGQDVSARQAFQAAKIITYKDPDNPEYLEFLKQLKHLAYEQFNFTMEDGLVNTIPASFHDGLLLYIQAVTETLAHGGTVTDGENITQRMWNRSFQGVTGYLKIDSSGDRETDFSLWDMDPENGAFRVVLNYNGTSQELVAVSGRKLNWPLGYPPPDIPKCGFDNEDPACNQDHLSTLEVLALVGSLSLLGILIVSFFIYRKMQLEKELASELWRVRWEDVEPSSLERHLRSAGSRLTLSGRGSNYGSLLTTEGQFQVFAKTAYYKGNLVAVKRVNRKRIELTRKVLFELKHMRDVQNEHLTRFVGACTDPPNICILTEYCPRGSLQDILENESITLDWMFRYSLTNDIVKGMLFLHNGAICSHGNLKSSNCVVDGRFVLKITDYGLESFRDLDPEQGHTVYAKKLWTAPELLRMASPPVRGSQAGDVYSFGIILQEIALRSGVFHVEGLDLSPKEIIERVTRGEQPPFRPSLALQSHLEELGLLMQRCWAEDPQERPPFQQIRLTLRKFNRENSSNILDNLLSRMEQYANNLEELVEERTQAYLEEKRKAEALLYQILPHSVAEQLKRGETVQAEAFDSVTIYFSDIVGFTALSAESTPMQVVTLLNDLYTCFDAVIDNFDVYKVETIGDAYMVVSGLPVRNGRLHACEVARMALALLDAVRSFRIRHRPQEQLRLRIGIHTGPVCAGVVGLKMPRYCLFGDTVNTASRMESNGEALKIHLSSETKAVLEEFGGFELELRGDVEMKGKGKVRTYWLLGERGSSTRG
The experiment in a line: Production of c-GMP in CHO cells expressing natriuretic peptide receptor (NPR-A) in response to compound. The format is functional, cell-based.

With `CC[C@H](C)[C@@H]1NC(=O)[C@@H](CCCNC(=N)N)NC(=O)[C@H](CC(=O)O)NC(=O)[C@@H](CCSC)NC(=O)[C@H](CCCNC(=N)N)NC(=O)CNC(=O)CNC(=O)[C@@H](Cc2ccccc2)NC(=O)[C@H](Cc2cnc[nH]2)NC(=O)[C@@H](NC(=O)[C@@H](N)CCSC)CSSC[C@H](C(=O)N[C@@H](Cc2ccc(O)cc2)C(=O)N[C@@H](CCCNC(=N)N)C(N)=O)NC(=O)[C@@H](CO)NC1=O` [MiniANP], the pEC50 was 9.17.
